Molecules are shown by their SMILES.

Data set [1] in a line: in vitro. It counts as cell-based, murine. To be noted: mouse.
The subject of data set [2] is LPS-induced arthritis. The data set can be described thus: Rat model of LPS-induced arthritis. The data set is classed as in vivo, Sprague-Dawley rats. The note with it: 7-mer 1 mM intraarticular along with LPS, 3 days, FIG. 4. The protocol:
In this study, acute arthritis was induced by direct injection of lipopolysaccharide (LPS) into rat joints in accordance with the procedures described by Pan R Y et al (J Virol. (1999) 73, 3410-3417). Briefly, adult (about 10 weeks old) male Sprague-Dawley rats (initial body wt=312±11 g) were anesthetized by an intraperitoneal injection of a Xylazine (10 mg/kg) and then randomly assigned to experimental groups; their right knees were later treated with a single intraarticular injection of 25 μl of 5% hyaluronic acid (HA) containing LPS (2 μg and 10 μg) or LPS+7-mer. 7-mer (10 mM stock) was dissolved in 25 μl of 5% HA to final concentration 1 mM. On day 2, the group LPS+7-mer or LPS+7-mer analogue was further treated with 7-mer by a single intraarticular is injection. On day 3, the knee joints were dissected and fixed in a 4% paraformaldehyde (PFA) solution and then decalcified with Shandon TBD-2 decalcifier (Thermo Scientific, Logan, Utah). The joints were then sectioned mid-sagittally and embedded in paraffin blocks. Sections (5 μm in thickness) were longitudinally cut, and stained with hematoxylin and eosin (H&E).
Rheumatoid arthritis (RA) is a chronic inflammatory disease characterized by an inflammation of the synovium leading to the destruction of joint cartilage and eventually the destruction of joint function. […]

Data set [3] deals with OVA-induced allergic asthma. The data set can be described thus: Mouse model of OVA-induced allergic asthma. The data set is classed as in vivo, BALB/c mice. The note with it: 7-mer 100 μM intranasal twice a day, vs OVA challenged mice, FIG. 6B. The protocol:
BALB/c mice (4- to 5-weeks old females) were sensitized intraperitoneally with 1 μg of ovalbumin (OVA) and 200 μl of 1.5% aluminum hydroxide on days 0 and 7, respectively; and then challenged three times by intranasal injection with 250 μg of OVA on days 21, 22 and 23. Control mice were given OVA with ALUM in sensitization stages, and PBS in place of OVA in challenge stages. For treatment, 7-mer analogue was mixed with 1% CMC eye drop to a concentration 100 μM. On day 20 and after the OVA challenge (day 21), the mice were randomly assigned to two experimental groups (n=6 per group) is and the nasal was injected with 20 μl of 7-mer or vehicle drop twice a day for 4 days (to day 23). Twenty-four hrs after the final challenge with OVA (day 24), mice were euthanized and their eyes were harvested, fixed overnight in 4% paraformaldehyde and embedded in paraffin.
In this example, we investigate the efficacy of the present synthetic peptide on allergic asthma by use of the well-characterized murine model of allergic airway disease, employing ovalbumin as the antigen. The experimental murine asthma model was established in accordance with the procedures described in the section of “Materials and Methods,” and as depicted in panel A of FIG. 6.

For data set [4], the system named is IMQ-induced psoriasis-like skin inflammation. The experiment in a line: Mouse model of IMQ-induced psoriasis-like skin inflammation. It counts as in vivo, BALB/c mice. On the procedure:
All experimental procedures were approved by the Mackay Memorial Hospital Animal Care and Uses Committee and conducted according to national animal welfare regulations. Psoriasis-like skin inflammation was created by treating mouse skin with Imiquimod (IMQ) in accordance with the procedures described by van der Fits et al (J Immunol. (2009), 182, 5836-5845). Accordingly, each BALB/c mice (8 weeks old) received a daily topical dose of 62.5 mg of commercially available IMQ cream (5%) on the shaved back and the right ear for 6 consecutive days; whereas the control mice (normal group) were treated with a control cream. For treatment, 7-mer analogue was mixed with IMQ cream to a concentration 100 μM.
Keratinocyte proliferation was determined by 5-bromo-2′-deoxyuridine (BrdU) incorporation. BrdU (Sigma-Aldrich) was reconstituted in DMSO as a stock solution of 80 mM. 10 μl of BrdU mixed with 90 μl of PBS was intraperitoneally injected into each mouse for 24 hr prior to euthanasia. Back skin was fixed overnight in 4% paraformaldehyde and embedded in paraffin for immunohistochemistry.
In this example, the efficacy of the present synthetic peptides of Example 1 on IMQ-induced psoriasis-like skin inflammation was investigated. To this purpose, animals (8-week-old mice) were given a daily topical dose of IMQ cream on the shaved back for six consecutive days, so as to induce psoriasis-like skin inflammation and desquamation (FIG. 1; left panel).
Psoriasis is a disease resulted from abnormal keratinocyte proliferation, thus the effects of the present synthetic peptides on the proliferation of keratinocytes were also monitored in accordance with procedures described in the section of “Materials and Methods”. Results are illustrated in FIG. 2.

On to `CC(=O)N[C@@H](CC(=O)O)C(=O)N[C@@H](CC(C)C)C(=O)N[C@@H](Cc1ccc(O)cc1)C(=O)N[C@@H](CCCNC(=N)N)C(=O)N[C@H](C(=O)N[C@@H](CCCNC(=N)N)C(=O)N[C@@H](CO)C(N)=O)C(C)C` [7-mer, NH2-Asp-Leu-Tyr-Arg-Val-Arg-Ser-COOH], for which the values for the viability at 24 h, 20 μM in data set [1] (Rar264.7 cell viability) and in data set [1] (Raw264.7 cell viability) were 55 ± 3.66% and 55.7 ± 4.24%, respectively. In addition, the “inflammation in the knee (synoviocyte proliferation, leukocyte infiltration, H&E)” value in data set [2] is “significantly attenuated”. Moreover, in data set [3], the “inflammatory cell infiltration (peribronchial, perivascular; H&E)” value was “significantly reduced”. Further, the “mucus secretion (PAS staining)” value in data set [3] is on record as “markedly reduced”. Also, the “number of BrdU-positive keratinocytes” value in data set [4] (7-mer topically or via intraperitoneal injection, FIG. 2) is “significantly reduced”. For the same compound, in data set [4] (topical cream containing IMQ and 7-mer peptide 100 μM, six consecutive days, FIG. 1), the “level of skin inflammation and desquamation” value is recorded as “reduced significantly”.

For orientation: viability means a per cent measure of how many cells are alive, often set against a control. High values mean better survival, low ones a greater loss of cells.

Source of the values: patent US10463710B2, “Short synthetic peptide for the treatment and/or prophylaxis of autoimmune and inflammatory disorders” (MacKay Memorial Hospital, priority 2015, dated 2019).
